Test results: patent publication US11542274B1, “Therapeutic compounds and methods of use thereof” (AGENCY FOR SCIENCE, TECHNOLOGY AND RESEARCH (A*STAR), priority 2019, dated 2023)

Target: truncated CRBN (319-427) (Homo sapiens (Human), UniProt Q96SW2)
Experiment: Fluorescence binding assay (fluorescence quenching), affinity to E3-CEREBLON (CRBN)-ubiquitin ligase
Details: ubiquitination moiety and linker, pH 6.5
Experimental: Fluorescence quenching end point measurements were performed in black polystyrene 384-plates on Tecan Safire monochromator reader with the following settings: excitation 280 nm; excitation bandwidth 10.0 nm; emission collection 340 nm; emission bandwidth 20.0 nm; high sensitivity flash mode; integration time 40 μS; delay 0 μm. All measurements were done in duplicates; GraphPad Prism 5.03 was used for data evaluation, curve fitting, plotting and determination of IC50 values.
Serial dilutions of each tested ligands were mixed with truncated CRBN (319-427) to a final volume of 25 μL in the assay buffer (20 mM sodium phosphate buffer, pH 6.5, with 150 mM sodium chloride). The final concentration of CRBN in all assay will be 5-10 μM with DMSO level at 4%. A control lanes were prepared with only tested ligands without the addition of CRBN, top up with assay buffer to 25 μL. Plates were incubated for 5 minutes and analyzed using the monochromator plate reader.
IC50 is the compound concentration that causes 50% quenching of the desired activity.

truncated CRBN (319-427), sequence (Q96SW2 319-427): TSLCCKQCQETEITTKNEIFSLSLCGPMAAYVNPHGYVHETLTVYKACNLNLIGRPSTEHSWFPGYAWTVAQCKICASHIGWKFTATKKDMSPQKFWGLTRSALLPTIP

Row | SMILES | IC50 [µM]
1 | Nc1ccc(OCCOCCOCCOCCNC(=O)c2cccc(-c3ccc4c(c3)NC(=O)C4)c2)cc1 [Compound 090, N-(2-(2-(2-(2-(4-aminophenoxy)ethoxy)ethoxy)ethoxy)ethyl)-3-(2-oxoindolin-6-yl)benzamide] | 100 to 300
2 | [N-]=[N+]=NCCOCCOCCOCCNC(=O)c1cc(-c2ccc3c(c2)NC(=O)C3)ccn1 [Compound 084, N-(2-(2-(2-(2-azidoethoxy)ethoxy)ethoxy)ethyl)-4-(2-oxoindolin-6-yl)picolinamide] | 1 to 100
3 | [N-]=[N+]=NCCOCCOCCOCCNc1cc(-c2ccc3c(c2)NC(=O)C3)ccn1 [Compound 085, 6-(2-((2-(2-(2-(2-azidoethoxy)ethoxy)ethoxy)ethyl)amino)pyridin-4-yl)indolin-2-one] | 100 to 300
4 | Nc1ccc(OCCOCCOCCOCCNC(=O)c2cccc(-c3ccc4c(c3)CC(=O)N4)c2)cc1 [Compound 091, N-(2-(2-(2-(2-(4-aminophenoxy)ethoxy)ethoxy)ethoxy)ethyl)-3-(2-oxoindolin-5-yl)benzamide] | 1 to 100

Second part, the compound after the results:

Row | IC50 [µM] | SMILES
5 | 1 to 100 | [N-]=[N+]=NCCOCCOCCOCCNc1ccc(C(=O)Nc2ccc3c(c2)CC(=O)N3)cn1 [Compound 086, 6-((2-(2-(2-(2-azidoethoxy)ethoxy)ethoxy)ethyl)amino)-N-(2-oxoindolin-5-yl)nicotinamide]
6 | 1 to 100 | Nc1ccc(OCCOCCOCCOCCNc2ccc(-c3ccc4c(c3)CC(=O)N4)cn2)cc1 [Compound 093, 5-(6-((2-(2-(2-(2-(4-aminophenoxy)ethoxy)ethoxy)ethoxy)ethyl)amino)-pyridin-3-yl)indolin-2-one]
7 | 100 to 300 | [N-]=[N+]=NCCOCCOCCOCCNc1ccc(-c2ccc3c(c2)NC(=O)C3)cn1 [Compound 089, 6-(6-((2-(2-(2-(2-azidoethoxy)ethoxy)ethoxy)ethyl)amino)pyridin-3-yl)indolin-2-one]

Same assay, conditions: ubiquitination moiety, pH 6.5

Row | SMILES | IC50 [µM]
8 | NC1CCN(C(=O)c2ccc3c(c2)CC(=O)N3)CC1 [Compound 078, 5-(4-aminopiperidine-1-carbonyl)indolin-2-one] | > 300
9 | O=C1Cc2ccc(-c3cccnc3)cc2N1 [Compound 003, 6-(pyridin-3-yl)indolin-2-one] | > 300
10 | O=C1Cc2cc(-c3ccc(C(=O)N4CCNCC4)cc3)ccc2N1 [Compound 054, 5-(4-(piperazine-1-carbonyl)phenyl)indolin-2-one] | 100 to 300
11 | CC(=O)Nc1ccc(-c2ccc3c(c2)CC(=O)N3)c(C)n1 [Compound 049, N-(6-methyl-5-(2-oxoindolin-5-yl)pyridin-2-yl)acetamide] | > 300
12 | O=C1Cc2cc(NC(=O)c3ccncc3)ccc2N1 [Compound 059, N-(2-oxoindolin-5-yl)isonicotinamide] | 100 to 300
13 | CC(=O)N1CCC(C(=O)Nc2ccc3c(c2)CC(=O)N3)CC1 [Compound 060, 1-acetyl-N-(2-oxoindolin-5-yl)piperidine-4-carboxamide] | 100 to 300
14 | O=C1Cc2cc(NC(=O)c3ccnc(F)c3)ccc2N1 [Compound 076, 2-fluoro-N-(2-oxoindolin-5-yl)isonicotinamide] | 100 to 300
15 | Cc1cc(N)ncc1-c1ccc2c(c1)CC(=O)N2 [Compound 043, 5-(6-amino-4-methylpyridin-3-yl)indolin-2-one] | 100 to 300
16 | O=C1Cc2cccc(-c3ccncc3)c2N1 [Compound 037, 7-(pyridin-4-yl)indolin-2-one] | > 300
17 | CC(C)(C)OC(=O)N1CCN(C(=O)c2cccc(-c3ccc4c(c3)CC(=O)N4)c2)CC1 [Compound 053, tert-butyl 4-(3-(2-oxoindolin-5-yl)benzoyl)piperazine-1-carboxylate] | 1 to 100
18 | O=C1Cc2ccc(C(=O)Nc3ccccc3)cc2N1 [Compound 024, 2-oxo-N-phenylindoline-6-carboxamide] | > 300
19 | CN1CCN(CCNC(=O)c2ccc3c(c2)NC(=O)C3)CC1 [Compound 028] | > 300
20 | O=C1Cc2cc(C(=O)N3CCCCC3)ccc2N1 [Compound 058, 5-(piperidine-1-carbonyl)indolin-2-one] | 100 to 300
21 | O=C1Cc2cc(-c3cccc(C(=O)N4CCNCC4)c3)ccc2N1 [Compound 055, 5-(3-(piperazine-1-carbonyl)phenyl)indolin-2-one] | 100 to 300
22 | COc1cc(-c2ccc3c(c2)NC(=O)C3)ccn1 [Compound 010, 6-(2-methoxypyridin-4-yl)indolin-2-one] | 100 to 300

Second part, the compound after the results:

Row | IC50 [µM] | SMILES
23 | > 300 | CC(C)C1C(=O)Nc2ccc(-c3ccncc3)cc21 (centres unmarked) [Compound 082, 3-isopropyl-5-(pyridin-4-yl)indolin-2-one]
24 | > 300 | O=C1Cc2cc(C(=O)N3CCC(Cc4ccccc4)CC3)ccc2N1 [Compound 069, 5-(4-benzylpiperidine-1-carbonyl)indolin-2-one]
25 | 100 to 300 | CNc1cc(-c2ccc3c(c2)CC(=O)N3)ccn1 [Compound 047, 5-(2-(methylamino)pyridin-4-yl)indolin-2-one]
26 | > 300 | O=C1Cc2ccc(C3=CCN(C(=O)OCc4ccccc4)CC3)cc2N1 [Compound 063, benzyl 4-(2-oxoindolin-6-yl)-3,6-dihydropyridine-1(2H)-carboxylate]
27 | > 300 | O=C1Cc2cc(-c3ccc(N4CCCCC4)nc3)ccc2N1 [Compound 057, 5-(6-(piperidin-1-yl)pyridin-3-yl)indolin-2-one]
28 | > 300 | NC1CCN(C(=O)c2ccc3c(c2)NC(=O)C3)CC1 [Compound 077, 6-(4-aminopiperidine-1-carbonyl)indolin-2-one]
29 | 100 to 300 | CNc1ccc(-c2ccc3c(c2)CC(=O)N3)cn1 [Compound 046, 5-(6-(methylamino)pyridin-3-yl)indolin-2-one]
30 | > 300 | O=C1Nc2cc(-c3ccncc3)ccc2C1(F)F [Compound 061, 3,3-difluoro-6-(pyridin-4-yl)indolin-2-one]
31 | 100 to 300 | Cc1cc(-c2ccc3c(c2)NC(=O)C3)ccn1 [Compound 005, 6-(2-methylpyridin-4-yl)indolin-2-one]
32 | > 300 | O=C1Cc2c(cccc2-c2ccncc2)N1 [Compound 038, 4-(pyridin-4-yl)indolin-2-one]

Tested on: RAMOS cells (Burkitt's lymphoma cell line)
Experiment: Anti-proliferation assay (CellTiter-Glo)
Type: cell-based
Details: Homo sapiens, 72 h, 3 days
Experimental: In cell growth experiments, cells were seeded in 96-well cell culture plates at a density of 3000 of RAMOS cells/well in 100 μL of culture medium. 100 μL of the diluted solution containing the tested compound was added to the appropriate wells of the cell plate. After addition of the tested compound, the cells were incubated at 37° C. in an atmosphere of 5% CO2 for 3 days. CellTiter-Glo (CTG) reagent from the Promega CellTiter-Glo Luminescent Cell Viability Assay kit (#G7572) was added into an OptiPlate 96 (Perkin Elmer, White, Opaque, #6005299) in the dark, incubated for at least 2 hrs, and luminescence signal was read using Tecan Safire II Multi-Mode Plate Reader. The GI50 was calculated by nonlinear regression analysis using GraphPad Prism5 software.
GI50 is the concentration for 50% of maximal inhibition of cell proliferation.

Row | GI50 [µM] | SMILES
33 | 0.001 to 0.1 | Cc1sc2c(c1C)C(c1ccc(Cl)cc1)=N[C@@H](CC(=O)NCCOCCOCCNc1ccc(-c3ccc4c(c3)CC(=O)N4)cn1)c1nnc(C)n1-2 [Compound 116, (S)-2-(4-(4-chlorophenyl)-2,3,9-trimethyl-6H-thieno[3,2-f][1,2,4]triazolo[4,3-a][1,4]diazepin-6-yl)-N-(2-(2-(2-((5-(2-oxoindolin-5-yl)pyridin-2-yl)amino)ethoxy)ethoxy)ethyl)acetamide]
34 | > 1 | Cc1sc2c(c1C)C(c1ccc(Cl)cc1)=N[C@@H](CC(=O)NCCOCCOCCOCCC(=O)NC1CCN(C(=O)c3ccc4c(c3)NC(=O)C4)CC1)c1nnc(C)n1-2 [Compound 110, (S)-3-(2-(2-(2-(2-(4-(4-chlorophenyl)-2,3,9-trimethyl-6H-thieno[3,2-f][1,2,4]triazolo[4,3-a][1,4]diazepin-6-yl)acetamido)ethoxy)ethoxy)ethoxy)-N-(1-(2-oxoindoline-6-carbonyl)piperidin-4-yl)propanamide]
35 | > 1 | Cc1sc2c(c1C)C(c1ccc(Cl)cc1)=N[C@@H](CC(=O)NCCOCCOCCOCCNc1cc(-c3ccc4c(c3)CC(=O)N4)ccn1)c1nnc(C)n1-2 [Compound 097, (S)-2-(4-(4-chlorophenyl)-2,3,9-trimethyl-6H-thieno[3,2-f][1,2,4]triazolo[4,3-a][1,4]diazepin-6-yl)-N-(2-(2-(2-(2-((4-(2-oxoindolin-5-yl)pyridin-2-yl)amino)ethoxy)ethoxy)ethoxy)ethyl)acetamide]
36 | 0.1 to 1 | Cc1sc2c(c1C)C(c1ccc(Cl)cc1)=N[C@@H](CC(=O)Nc1ccc(OCCOCCNc3ncccc3-c3ccc4c(c3)CC(=O)N4)cc1)c1nnc(C)n1-2 [Compound 140, (S)-2-(4-(4-chlorophenyl)-2,3,9-trimethyl-6H-thieno[3,2-f][1,2,4]triazolo[4,3-a][1,4]diazepin-6-yl)-N-(4-(2-(2-((3-(2-oxoindolin-5-yl)pyridin-2-yl)amino)ethoxy)ethoxy)phenyl)acetamide]

Row | SMILES | GI50 [µM]
37 | Cc1sc2c(c1C)C(c1ccc(Cl)cc1)=N[C@@H](CC(=O)N1CCN(c3ccc(-c4ccc5c(c4)CC(=O)N5)cn3)CC1)c1nnc(C)n1-2 [Compound 119, (S)-5-(6-(4-(2-(4-(4-chlorophenyl)-2,3,9-trimethyl-6H-thieno[3,2-f][1,2,4]triazolo[4,3-a][1,4]diazepin-6-yl)acetyl)piperazin-1-yl)pyridin-3-yl)indolin-2-one] | 0.1 to 1
38 | Cc1sc2c(c1C)C(c1ccc(Cl)cc1)=N[C@@H](CC(=O)NCCOCCOc1ccc(-c3ccc4c(c3)CC(=O)N4)cn1)c1nnc(C)n1-2 [Compound 132, (S)-2-(4-(4-chlorophenyl)-2,3,9-trimethyl-6H-thieno[3,2-f][1,2,4]triazolo[4,3-a][1,4]diazepin-6-yl)-N-(2-(2-((5-(2-oxoindolin-5-yl)pyridin-2-yl)oxy)ethoxy)ethyl)acetamide] | 0.001 to 0.1
